Each block holds one molecule with its values, some of them ahead of it. The source made the active and inactive calls.
Experiments:
[1] = inhibitors of intracellular T. cruzi replication, confirmation, NIH3T3 host cells, beta-gal luminescence (AID 2044); assay type: functional, cell-based;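 also: intracellular parasites grown in NIH/3T3 mouse fibroblasts as host cells; luminescent beta-galactosidase reporter signal from transgenic T. cruzi replicating inside host cells; inhibitors lower the luminescence signal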
[2] = cytotoxicity toward NIH3T3 fibroblasts, dose response, counter-screen, cell-based, ATP luminescence, mouse fibroblasts (AID 2010); assay type: functional;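 also: cells exposed to compound for about 90 hours before reading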
[3] = target: T1, Methionyl-tRNA synthetase, putative (Trypanosoma brucei brucei, UniProt Q38C91); assay type: functional, Trypanosoma brucei brucei strain 927/4 GUTat10.1
T1 sequence (Q38C91 whole entry): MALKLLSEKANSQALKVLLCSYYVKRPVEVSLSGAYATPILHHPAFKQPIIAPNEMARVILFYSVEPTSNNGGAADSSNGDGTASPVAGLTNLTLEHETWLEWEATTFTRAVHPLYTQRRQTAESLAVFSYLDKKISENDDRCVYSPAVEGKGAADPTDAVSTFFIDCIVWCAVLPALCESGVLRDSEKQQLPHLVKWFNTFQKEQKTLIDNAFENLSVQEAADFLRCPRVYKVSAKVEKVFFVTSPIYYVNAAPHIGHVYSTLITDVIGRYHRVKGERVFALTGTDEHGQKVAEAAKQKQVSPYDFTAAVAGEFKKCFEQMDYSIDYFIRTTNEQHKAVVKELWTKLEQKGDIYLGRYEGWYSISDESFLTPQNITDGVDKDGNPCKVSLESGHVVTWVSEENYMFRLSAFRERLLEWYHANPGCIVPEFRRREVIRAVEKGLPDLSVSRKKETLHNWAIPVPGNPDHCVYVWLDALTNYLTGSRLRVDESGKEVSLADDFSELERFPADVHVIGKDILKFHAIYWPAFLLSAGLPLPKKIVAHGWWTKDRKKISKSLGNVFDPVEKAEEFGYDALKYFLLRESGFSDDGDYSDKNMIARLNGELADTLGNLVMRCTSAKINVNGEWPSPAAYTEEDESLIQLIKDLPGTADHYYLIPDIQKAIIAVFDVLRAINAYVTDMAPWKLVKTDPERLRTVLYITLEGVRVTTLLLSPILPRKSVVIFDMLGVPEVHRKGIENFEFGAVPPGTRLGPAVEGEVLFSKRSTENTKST

[4] = Counterscreen for inhibitors of Trypanosoma brucei methionyl tRNA synthetase (MetRS): Luminescence-based cell-based high throughput dose response assay to identify compounds that are cytotoxic to Jurkat human T lymphocyte cells.; assay type: functional
[5] = target: T1, Methionyl-tRNA synthetase, putative; assay type: functional, Trypanosoma brucei brucei strain 927/4 GUTat10.1; remark: listed apart in the source
[6] = cells
[7] = AlphaScreen signal interference compounds, dose response, artefact control for ARNT-TACC3 interaction inhibitor project, biochemical, luminescence, cherry-pick (AID 651705); assay type: functional;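 also: AlphaScreen bead proximity signal that flags compounds interfering with the detection technology; potency reflects signal decrease which marks the compound as an assay artifact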
[8] = target: T2, Low molecular weight phosphotyrosine protein phosphatase (Homo sapiens, UniProt P24666); assay type: functional; settings: read-out: IC50_Mean
T2 sequence (P24666 whole entry): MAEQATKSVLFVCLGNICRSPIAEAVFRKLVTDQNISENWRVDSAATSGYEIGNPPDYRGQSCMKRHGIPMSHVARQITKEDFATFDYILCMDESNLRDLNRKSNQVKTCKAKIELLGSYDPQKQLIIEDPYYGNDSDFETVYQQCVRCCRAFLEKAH

[9] = target: T2, Low molecular weight phosphotyrosine protein phosphatase; assay type: functional; settings: read-out: IC50_Mean; remark: listed apart in the source
[10] = target: T3, Small ubiquitin-related modifier 1 (Homo sapiens, UniProt P63165); experiment: inhibitors of SUMO1 peptide binding, dose response, biochemical, fluorescence polarization, uHTS hits (AID 624382); assay type: functional; settings: read-out: IC50_Mean
[11] = target: T3, Small ubiquitin-related modifier 1; experiment: inhibitors of SUMO1 partner interactions, dose response, biochemical, FRET (AID 624383); assay type: functional; settings: read-out: IC50_Mean
[12] = target: Arf-GAP with SH3 domain, ANK repeat and PH domain-containing protein 1 (Homo sapiens, UniProt Q9ULH1); assay type: functional;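 also: biochemical fluorescence polarization dose–response screen measuring inhibition of ASAP1; ASAP1 GAP domain stimulating GTP hydrolysis by truncated human ARF1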
[13] = target: Tyrosine-protein phosphatase non-receptor type 11 (Homo sapiens, UniProt Q06124); experiment: SHP2 phosphatase inhibition, dose response, selectivity assay for STEP inhibitor project, biochemical (AID 602367); assay type: functional; settings: read-out: IC50_Mean
[14] = target: Tyrosine-protein phosphatase non-receptor type 5 (Homo sapiens, UniProt P54829); experiment: STEP phosphatase inhibitors, confirmation, biochemical, fluorescence intensity, uHTS hits (AID 602372); assay type: functional; settings: read-out: IC50_Mean
[15] = target: Dual specificity protein phosphatase 3 (Homo sapiens, UniProt P51452); experiment: VHR phosphatase inhibition, dose response, selectivity assay for STEP inhibitor project, biochemical (AID 602374); assay type: functional; settings: read-out: IC50_Mean
[16] = target: Nuclear receptor subfamily 5 group A member 2 (Homo sapiens, UniProt O00482); assay type: functional, cell-based;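 also: HEK293T cells transfected with LRH-1 and a StAR promoter luciferase reporter; potency for inhibitors that lower LRH-1 driven reporter light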
[17] = target: Steroidogenic factor 1 (Homo sapiens, UniProt Q13285); experiment: Counterscreen for inverse agonists of the liver receptor homolog-1 (LRH-1; NR5A2): Luminescence-based cell-based high throughput dose response assay to identify inverse agonists of the Steroidogenic Factor 1 Nuclear Receptor (SF1; NR5A1).; assay type: functional
[18] = StAR promoter reporter inhibition counter-screen, dose response, counter-screen for LRH-1 inverse agonist project, cell-based, luminescence, luciferase reporter (AID 651969); assay type: functional
[19] = target: T4, Hexokinase (Trypanosoma brucei, UniProt Q38C41); experiment: Confirmation assay for inhibitors of Trypanosoma brucei hexokinase 1-Analogue-first series. [Related pubchem assays (depositor defined):AID1430, AID1632, AID2516, AID2560, AID2579, AID2600, AID449725, AID492951]; assay type: functional
T4 sequence (Q38C41 whole entry): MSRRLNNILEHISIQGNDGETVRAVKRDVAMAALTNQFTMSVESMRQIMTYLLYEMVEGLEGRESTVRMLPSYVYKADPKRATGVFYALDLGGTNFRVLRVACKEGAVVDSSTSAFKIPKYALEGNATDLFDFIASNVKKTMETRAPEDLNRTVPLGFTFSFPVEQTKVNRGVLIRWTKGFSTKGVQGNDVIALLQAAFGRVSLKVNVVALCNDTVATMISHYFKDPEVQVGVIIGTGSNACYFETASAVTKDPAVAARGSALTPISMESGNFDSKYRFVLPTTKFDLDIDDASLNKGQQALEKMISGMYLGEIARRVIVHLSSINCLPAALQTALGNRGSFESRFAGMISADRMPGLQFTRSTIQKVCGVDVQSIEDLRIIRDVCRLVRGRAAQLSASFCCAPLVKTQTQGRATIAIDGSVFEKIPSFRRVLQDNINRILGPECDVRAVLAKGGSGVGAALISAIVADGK

[20] = target: Glucose-6-phosphate 1-dehydrogenase (Homo sapiens, UniProt P11413); experiment: human G6PD enzyme inhibitors, dose response, selectivity assay for P. falciparum G6PD inhibitor project, biochemical, fluorescence (AID 504792); assay type: functional
[21] = Fluorescence-based cell-based high throughput dose response assay for inhibitors of the interaction of nucleotide-binding oligomerization domain containing 2 (NOD2) and the receptor-interacting serine-threonine kinase 2 (RIPK2).; assay type: functional; settings: Homo sapiens
[22] = test system: Vero; experiment: Vero cell toxicity, dose response, cytotoxicity control, plate reader, cherry-pick samples (AID 687020); assay type: functional, cell-based; settings: Chlorocebus sabaeus
[23] = Luminescence Cell-Based Dose Retest to Confirm Inhibitors of Cancer Stem Cells. [Related pubchem assays (depositor defined):AID2717, AID2721]; assay type: functional; settings: Homo sapiens
[24] = cytotoxicity in HMLE control line with eGFP shRNA, dose response, counter-screen for HMLE_sh_ECad selective toxicity project, cell-based, HMLE_sh_eGFP, luminescence (AID 463074); assay type: functional, Homo sapiens;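 also: HMLE human mammary epithelial cells expressing control shRNA against eGFP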
[25] = target: Melanocortin receptor 4 (Homo sapiens, UniProt P32245); assay type: functional, cell-based;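 also: Cell-based assay with luminescence read-out, confirmatory dose-response testing for agonist activity of biased ligands at MC4R; human U2OS cells with tagged receptor and beta-arrestin; potency of agonists that increase receptor coupling to beta-arrestin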
[26] = target: Photoreceptor-specific nuclear receptor (Homo sapiens, UniProt Q9Y5X4); assay type: functional, cell-based;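 also: CHO-S cells with Gal4-NCOR and VP16-NR2E3 two-hybrid luciferase reporter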
[27] = target: Genome polyprotein (dengue virus type 2, UniProt P29990); experiment: Dengue-2 NS5 methyltransferase inhibitors, primary screen, biochemical, confirmation dose response (AID 588689); assay type: functional
[28] = target: T5, Rac GTPase-activating protein 1 (Homo sapiens, UniProt Q9H0H5); experiment: MgcRacGAP GTPase-activating activity inhibitors, confirmation, biochemical, ADP Hunter fluorescence, primary and confirmatory (AID 624330); assay type: functional
T5 sequence (Q9H0H5 whole entry): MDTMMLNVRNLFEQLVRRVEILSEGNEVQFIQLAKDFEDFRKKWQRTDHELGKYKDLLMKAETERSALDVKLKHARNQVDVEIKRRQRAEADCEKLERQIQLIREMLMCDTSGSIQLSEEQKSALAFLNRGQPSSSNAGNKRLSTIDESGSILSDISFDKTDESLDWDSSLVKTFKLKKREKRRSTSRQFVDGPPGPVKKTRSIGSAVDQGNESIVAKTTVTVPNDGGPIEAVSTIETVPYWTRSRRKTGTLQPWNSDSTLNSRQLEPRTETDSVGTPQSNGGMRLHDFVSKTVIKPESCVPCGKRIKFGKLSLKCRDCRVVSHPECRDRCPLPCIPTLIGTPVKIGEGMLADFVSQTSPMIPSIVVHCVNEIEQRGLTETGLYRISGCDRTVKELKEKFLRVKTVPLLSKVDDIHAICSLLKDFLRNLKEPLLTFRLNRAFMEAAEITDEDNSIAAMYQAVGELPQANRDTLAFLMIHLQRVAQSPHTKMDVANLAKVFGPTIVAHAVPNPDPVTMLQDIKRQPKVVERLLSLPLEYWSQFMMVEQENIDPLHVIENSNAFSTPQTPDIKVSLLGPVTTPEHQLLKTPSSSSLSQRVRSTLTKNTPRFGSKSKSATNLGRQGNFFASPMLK

[29] = target: Aryl hydrocarbon receptor (Homo sapiens, UniProt P35869); settings: Potency;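 also: confirmatory quantitative high-throughput screen measuring activation of the AhR signaling pathway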
Aryl hydrocarbon receptor, sequence (P35869 whole entry): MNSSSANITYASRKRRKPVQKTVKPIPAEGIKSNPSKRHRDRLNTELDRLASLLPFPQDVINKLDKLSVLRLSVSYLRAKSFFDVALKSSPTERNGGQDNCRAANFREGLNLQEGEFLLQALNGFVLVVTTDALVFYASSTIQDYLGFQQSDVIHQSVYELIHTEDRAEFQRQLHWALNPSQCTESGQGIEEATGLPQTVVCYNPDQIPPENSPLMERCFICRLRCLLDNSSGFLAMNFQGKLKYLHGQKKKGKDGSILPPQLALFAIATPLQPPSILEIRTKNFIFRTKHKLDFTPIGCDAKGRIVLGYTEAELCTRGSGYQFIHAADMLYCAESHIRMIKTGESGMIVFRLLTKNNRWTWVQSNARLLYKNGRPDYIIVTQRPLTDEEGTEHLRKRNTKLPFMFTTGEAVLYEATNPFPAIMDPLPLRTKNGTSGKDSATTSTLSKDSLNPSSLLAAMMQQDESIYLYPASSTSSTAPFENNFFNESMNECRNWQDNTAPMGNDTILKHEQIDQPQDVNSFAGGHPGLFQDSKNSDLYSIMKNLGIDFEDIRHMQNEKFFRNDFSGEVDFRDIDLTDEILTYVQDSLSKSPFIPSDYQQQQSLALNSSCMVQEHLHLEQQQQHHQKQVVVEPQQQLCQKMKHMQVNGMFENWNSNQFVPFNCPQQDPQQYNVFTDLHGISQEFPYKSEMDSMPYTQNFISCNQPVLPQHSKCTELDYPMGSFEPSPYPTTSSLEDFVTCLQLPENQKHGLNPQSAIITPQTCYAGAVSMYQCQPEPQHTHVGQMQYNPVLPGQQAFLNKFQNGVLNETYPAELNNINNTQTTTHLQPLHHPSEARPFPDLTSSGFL

T3 sequence (P63165 whole entry): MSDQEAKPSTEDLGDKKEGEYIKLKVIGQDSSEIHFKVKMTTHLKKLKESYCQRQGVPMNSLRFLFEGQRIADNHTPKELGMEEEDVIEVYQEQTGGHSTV
Steroidogenic factor 1, sequence (Q13285 whole entry): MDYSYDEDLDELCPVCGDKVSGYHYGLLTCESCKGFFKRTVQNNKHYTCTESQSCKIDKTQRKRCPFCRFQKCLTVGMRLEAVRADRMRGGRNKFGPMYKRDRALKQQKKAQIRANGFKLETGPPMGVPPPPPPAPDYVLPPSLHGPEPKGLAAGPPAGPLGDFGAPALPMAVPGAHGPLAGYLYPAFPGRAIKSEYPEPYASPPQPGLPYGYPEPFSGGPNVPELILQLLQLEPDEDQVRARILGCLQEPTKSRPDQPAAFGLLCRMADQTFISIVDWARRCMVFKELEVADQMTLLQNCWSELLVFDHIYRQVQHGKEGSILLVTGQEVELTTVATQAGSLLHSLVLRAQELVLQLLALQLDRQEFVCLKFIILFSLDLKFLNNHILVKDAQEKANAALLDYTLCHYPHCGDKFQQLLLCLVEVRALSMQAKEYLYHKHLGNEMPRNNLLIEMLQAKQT
Nuclear receptor subfamily 5 group A member 2, sequence (O00482 whole entry): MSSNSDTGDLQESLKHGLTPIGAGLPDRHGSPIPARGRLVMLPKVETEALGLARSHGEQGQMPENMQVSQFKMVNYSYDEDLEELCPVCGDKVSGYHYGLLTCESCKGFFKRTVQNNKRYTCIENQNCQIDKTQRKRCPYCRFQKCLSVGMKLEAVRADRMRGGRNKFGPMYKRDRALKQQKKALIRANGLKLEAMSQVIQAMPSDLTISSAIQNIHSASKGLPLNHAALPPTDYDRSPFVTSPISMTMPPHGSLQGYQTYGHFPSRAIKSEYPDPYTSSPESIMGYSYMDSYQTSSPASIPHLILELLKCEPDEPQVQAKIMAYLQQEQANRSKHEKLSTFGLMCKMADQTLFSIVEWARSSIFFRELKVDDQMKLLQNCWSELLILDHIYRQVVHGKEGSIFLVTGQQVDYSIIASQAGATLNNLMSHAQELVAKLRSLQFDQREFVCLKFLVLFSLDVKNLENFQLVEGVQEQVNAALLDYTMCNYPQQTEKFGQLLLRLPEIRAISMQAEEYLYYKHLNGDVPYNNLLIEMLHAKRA
Dual specificity protein phosphatase 3, sequence (P51452 whole entry): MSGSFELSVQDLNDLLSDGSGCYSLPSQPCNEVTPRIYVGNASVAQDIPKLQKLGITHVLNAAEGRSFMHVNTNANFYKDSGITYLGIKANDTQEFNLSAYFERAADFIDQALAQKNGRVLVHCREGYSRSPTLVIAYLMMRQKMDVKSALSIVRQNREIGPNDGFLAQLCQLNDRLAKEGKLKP
Genome polyprotein, sequence (P29990 2492-3391 limits assumed): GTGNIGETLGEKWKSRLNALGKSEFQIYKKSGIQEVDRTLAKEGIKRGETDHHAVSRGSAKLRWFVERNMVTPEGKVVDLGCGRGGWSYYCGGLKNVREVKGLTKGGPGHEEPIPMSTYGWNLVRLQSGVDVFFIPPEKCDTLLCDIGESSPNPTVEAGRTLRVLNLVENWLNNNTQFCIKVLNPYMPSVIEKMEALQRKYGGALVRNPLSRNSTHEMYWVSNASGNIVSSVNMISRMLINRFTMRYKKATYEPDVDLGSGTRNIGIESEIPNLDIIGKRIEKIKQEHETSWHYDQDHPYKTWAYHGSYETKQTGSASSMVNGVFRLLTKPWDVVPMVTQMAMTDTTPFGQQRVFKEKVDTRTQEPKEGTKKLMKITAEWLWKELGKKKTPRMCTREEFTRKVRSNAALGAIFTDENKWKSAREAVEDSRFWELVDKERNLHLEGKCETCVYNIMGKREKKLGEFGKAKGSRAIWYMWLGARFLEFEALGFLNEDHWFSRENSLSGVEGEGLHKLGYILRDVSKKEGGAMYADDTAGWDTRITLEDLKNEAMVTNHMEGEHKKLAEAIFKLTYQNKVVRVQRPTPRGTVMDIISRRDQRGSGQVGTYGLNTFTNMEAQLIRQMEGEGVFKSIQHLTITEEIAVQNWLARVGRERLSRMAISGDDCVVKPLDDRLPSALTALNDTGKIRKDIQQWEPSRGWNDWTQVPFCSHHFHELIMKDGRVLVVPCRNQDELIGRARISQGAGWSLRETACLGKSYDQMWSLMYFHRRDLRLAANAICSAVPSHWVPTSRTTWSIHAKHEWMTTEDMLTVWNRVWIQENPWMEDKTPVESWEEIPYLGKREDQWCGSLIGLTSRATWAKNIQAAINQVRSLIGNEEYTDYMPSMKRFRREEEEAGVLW
Tyrosine-protein phosphatase non-receptor type 5, sequence (P54829 whole entry): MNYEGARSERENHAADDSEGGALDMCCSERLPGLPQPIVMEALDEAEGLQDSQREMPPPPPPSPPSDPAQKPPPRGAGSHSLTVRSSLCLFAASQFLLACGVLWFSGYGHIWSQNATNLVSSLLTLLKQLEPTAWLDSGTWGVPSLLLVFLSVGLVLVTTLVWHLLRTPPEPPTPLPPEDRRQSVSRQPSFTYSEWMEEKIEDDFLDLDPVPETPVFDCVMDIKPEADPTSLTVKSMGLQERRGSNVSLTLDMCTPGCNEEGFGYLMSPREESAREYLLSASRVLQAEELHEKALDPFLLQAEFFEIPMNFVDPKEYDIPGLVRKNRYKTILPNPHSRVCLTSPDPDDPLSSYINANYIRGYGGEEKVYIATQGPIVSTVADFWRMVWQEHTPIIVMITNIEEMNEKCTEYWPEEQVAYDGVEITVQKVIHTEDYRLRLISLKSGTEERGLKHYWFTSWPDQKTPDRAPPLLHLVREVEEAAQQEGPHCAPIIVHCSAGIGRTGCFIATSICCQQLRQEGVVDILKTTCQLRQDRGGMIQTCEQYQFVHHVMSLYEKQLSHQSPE
Glucose-6-phosphate 1-dehydrogenase, sequence (P11413 whole entry, the tested form may be a part): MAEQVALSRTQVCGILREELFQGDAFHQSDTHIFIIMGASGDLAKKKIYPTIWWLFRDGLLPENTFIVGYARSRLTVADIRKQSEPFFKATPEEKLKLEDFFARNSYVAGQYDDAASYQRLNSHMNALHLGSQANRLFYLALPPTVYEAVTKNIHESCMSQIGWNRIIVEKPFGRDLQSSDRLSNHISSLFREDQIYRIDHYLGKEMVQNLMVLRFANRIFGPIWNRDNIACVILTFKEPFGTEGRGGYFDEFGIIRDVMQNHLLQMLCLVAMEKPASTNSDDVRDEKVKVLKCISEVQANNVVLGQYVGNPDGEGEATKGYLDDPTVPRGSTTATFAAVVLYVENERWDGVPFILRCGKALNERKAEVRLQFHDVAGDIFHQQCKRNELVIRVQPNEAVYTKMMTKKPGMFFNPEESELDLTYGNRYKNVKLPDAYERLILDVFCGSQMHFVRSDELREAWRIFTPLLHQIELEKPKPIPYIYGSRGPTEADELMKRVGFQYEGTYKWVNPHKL
Photoreceptor-specific nuclear receptor, sequence (Q9Y5X4 whole entry, the tested form may be a part): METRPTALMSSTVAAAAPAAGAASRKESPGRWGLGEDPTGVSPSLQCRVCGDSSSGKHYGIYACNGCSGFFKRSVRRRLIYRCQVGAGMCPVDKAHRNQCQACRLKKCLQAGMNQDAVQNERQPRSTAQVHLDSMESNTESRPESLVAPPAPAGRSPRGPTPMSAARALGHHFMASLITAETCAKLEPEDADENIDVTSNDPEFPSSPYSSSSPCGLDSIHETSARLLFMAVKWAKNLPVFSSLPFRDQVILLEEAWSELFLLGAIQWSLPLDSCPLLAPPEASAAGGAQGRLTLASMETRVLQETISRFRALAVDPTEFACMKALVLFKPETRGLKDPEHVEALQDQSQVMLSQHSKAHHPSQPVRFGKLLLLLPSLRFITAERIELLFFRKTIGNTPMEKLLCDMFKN
Melanocortin receptor 4, sequence (P32245 whole entry, the tested form may be a part): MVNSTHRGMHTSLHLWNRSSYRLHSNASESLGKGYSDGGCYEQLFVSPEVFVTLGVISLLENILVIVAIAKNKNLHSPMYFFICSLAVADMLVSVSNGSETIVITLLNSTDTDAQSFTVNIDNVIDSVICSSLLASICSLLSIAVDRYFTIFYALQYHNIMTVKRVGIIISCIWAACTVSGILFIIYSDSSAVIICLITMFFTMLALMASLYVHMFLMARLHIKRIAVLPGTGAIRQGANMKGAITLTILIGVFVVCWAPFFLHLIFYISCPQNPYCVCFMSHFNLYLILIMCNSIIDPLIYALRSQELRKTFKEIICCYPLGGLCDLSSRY

Compound: OC(COc1ccc2cc(Br)ccc2c1)Cn1ccnc1 (configuration not stated)
- EC50 [1]: < 0.1 µM (active)
- EC50 [2]: > 60 µM (not active)
- IC50 [3]: 28.2 µM (inactive)
- IC50 [4]: 83.3 µM (inactive)
- IC50 [5]: 94.1 µM (inactive)
- EC50 [6]: 0.126 µM (active)

Compound: COc1ccc(NC(=O)CSc2c(C)nn(-c3nnc(C)c(O)n3)c2C)cc1
- AC50 [7]: 133 µM (active)

Compound: Cc1cc(C)c2c(N)c(C(=O)c3ccc(Cl)c(Cl)c3)sc2n1
- EC50 [1]: 0.166 µM (active)
- EC50 [2]: > 60 µM (not active)
- IC50 [8]: 14.2 µM (active)
- IC50 [9]: 4.5 µM (active)

Compound: COC(=O)c1cccc(Nc2nc(-c3ccncc3)nc3ccccc23)c1
- IC50 [10]: > 66.6 µM (inactive)
- IC50 [11]: 4.11 µM (active)
- IC50 [12]: 10.5 µM (inactive)

- IC50 [13]: 11.3 µM (active)
- IC50 [14]: 62.2 µM (inactive)
- IC50 [15]: 4.61 µM (active)
Compound: Cc1ccccc1N1CCN(C(=S)c2ccc(-c3cccc([N+](=O)[O-])c3)o2)CC1

Compound: NC(=O)C1CCN(C(=O)COc2ccc3c4c(c(=O)oc3c2)CCCC4)CC1
- IC50 [16]: 3.98 µM (active)
- IC50 [17]: 4.4 µM (active)
- IC50 [18]: 35.9 µM (inactive)

Compound: O=C(Cn1sc2ccccc2c1=O)Nc1ccc(Cl)cc1
- IC50 [19]: 12.9 µM (active)
- IC50 [20]: 12.5 µM (active)
- IC50 [21]: 7.04 µM (active)

Compound: O=C(c1cccc(Cl)c1)N1CCC2(CC1)NCCc1[nH]cnc12
- AC50 [22]: 34 µM (active)

Compound: COc1cc(/C=C2\Oc3ccc(C#Cc4ccc(O)cc4)cc3C2=O)cc(OC)c1
- AC50 [23]: 1.41 µM (active)
- AC50 [24]: 29.7 µM (active)
- EC50 [25]: > 89.2 µM (inactive)

Compound: Cc1nn(CC(=O)Nc2ccc3c(c2)OCCO3)c(C)c1[N+](=O)[O-]
- IC50 [16]: 14.3 µM (inactive)
- IC50 [17]: 3.1 µM (active)
- IC50 [18]: 35.9 µM (inactive)

- IC50 [26]: 39.8 µM (inactive)
Compound: COc1ccc([C@@H]2C[C@H]3[C@@H](CN2S(=O)(=O)c2ccccc2)C(=O)C[C@@H](c2cccc(Cl)c2)N3S(=O)(=O)c2ccc(C)cc2)cc1

Compound: Cc1nnc(O)nc1N/N=C/c1ccco1
- AC50 [7]: 119 µM (active)

Compound: COc1ccccc1Nc1ccc2c(O)cc(S(=O)(=O)O)cc2c1
- IC50 [27]: 60.5 µM (active)
- IC50 [10]: > 66.6 µM (inactive)
- IC50 [11]: 3.41 µM (active)
- IC50 [28]: 90.4 µM (active)

Compound: CCNP(=S)(OC)O/C(C)=C/C(=O)OC(C)C (configuration not stated) [PROPETAMPHOS]
- AC50 [29]: 50.1 µM (inconclusive)
